The text below walks through data of US5750540A, “1,4-di-substituted piperidine derivatives” (Banyu Pharmaceutical Co., Ltd., priority 1995, dated 1998).

In assay [1] the target is T1, muscarinic M1 receptors (Rattus norvegicus, UniProt P08482).
T1 construct: a mixture of a membrane specimen from the cerebral cortex; from tissue; host or cells: rat cerebral cortex membranes (SD rat)
T1 sequence (P08482 1-460): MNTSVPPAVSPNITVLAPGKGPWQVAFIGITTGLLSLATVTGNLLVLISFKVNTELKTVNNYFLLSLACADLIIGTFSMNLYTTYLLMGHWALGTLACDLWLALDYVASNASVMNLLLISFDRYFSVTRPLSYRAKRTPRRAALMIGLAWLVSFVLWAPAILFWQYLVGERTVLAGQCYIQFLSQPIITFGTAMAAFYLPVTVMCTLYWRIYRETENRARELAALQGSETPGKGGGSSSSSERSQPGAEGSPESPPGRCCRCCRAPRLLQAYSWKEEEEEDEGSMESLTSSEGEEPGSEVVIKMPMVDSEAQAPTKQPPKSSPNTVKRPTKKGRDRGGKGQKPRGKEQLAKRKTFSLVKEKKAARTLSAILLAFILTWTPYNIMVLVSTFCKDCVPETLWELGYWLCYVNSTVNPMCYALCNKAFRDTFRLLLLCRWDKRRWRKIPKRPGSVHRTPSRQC
The assay is described as follows: Inhibition of binding to muscarinic M1 receptors ([3H]-telenzepine, cerebral cortex membrane). As for the experimental part: (§1) In these tests, their inhibitory and antagonistic effects were expressed in terms of the dissociation constant (Ki) of each test compound which was calculated from its concentration (IC50 ) causing a 50% inhibition of the binding of a labeled ligand to muscarinic receptors. As the labeled ligand, [^3 H]-telenzepine was used for the muscarinic M1 receptors and [^3 H]-N-methylscopolamine for the muscarinic M2 and M3 receptors.
(§2) A male SD strain rat (purchased from Nippon Charles River Co., Ltd.), weighing about 250-350 g, was sacrificed, and the cerebral cortex, heart and lacrimal glands were excised. Using a Polytron (setting 5), each organ was homogenized in 5 volumes of an ice-cold buffer solution (pH 7.4) containing 50 mM tris-HCl, 5 mM magnesium chloride, 1 mM trisodium ethylenediaminetetraacetate and 20% sucrose. The resulting homogenate was centrifuged at 3,000×g at 4° C. for 15 minutes, and the supernatant was filtered through gauze and ultracentrifuged at 100,000×g at 4° C. for 45 minutes. The resulting precipitate was suspended in an ice-cold buffer solution (pH 7.4) containing 50 mM tris-HCl and 5 mM magnesium chloride (hereinafter referred briefly to as "tris buffer") and ultracentrifuged at 100,000×g at 4° C. for 45 minutes. The resulting precipitate was suspended in tris buffer so as to give a concentration of 50 mg/ml and stored at -80° C. till use. The membrane specimens so prepared were thawed prior to use and submitted to tests for the inhibition of binding to muscarinic receptors.
2) Tests for the inhibition of binding to the muscarinic M1 receptors
These tests were performed according to a modification of the method of Hargreaves et al. [Br. J. Pharmacol., Vol. 107, pp. 494-501 (1992)]. Specifically, a mixture of a membrane specimen from the cerebral cortex, 1 nM [^3 H]-telenzepine (85 Ci/mmol; manufactured by New England Nuclear) and a test compound in 0.5 ml of tris buffer was incubated at room temperature (about 20°-25° C.) for 120 minutes. After the addition of 0.5 ml of ice-cold tris buffer, the mixture was filtered by suction through a glass filter (Packard Unifilter Plate GF/C). Then, the filter was washed four times with 1 ml portions of ice-cold tris buffer and dried at 50° C. for an hour. After the addition of a scintillator (Packard Microscinti 0), the radioactivity of [^3 H]-telenzepine adsorbed to the filter was measured with a microplate scintillation counter (Packard Topcount). The nonspecific binding of [^3 H]-telenzepine to receptors was determined by the addition of […] pirenzepine. According to the method of Cheng and Prusoff [Biochem. Pharmacol., Vol. 22, pp. 3099-3108 (1973)], the affinity of the test compound (i.e., a compound in accordance with the present invention) for the muscarinic M1 receptors was determined in terms of its dissociation constant (Ki) calculated from the concentration (IC50) of the test compound which was required to cause a 50% inhibition of the binding of [^3 H]-telenzepine used as the labeled ligand.

Assay [2] has as its target muscarinic M3 receptor (Rattus norvegicus, UniProt P08483). The experiment in a line: Inhibition of binding to muscarinic M3 receptors ([3H]-N-methylscopolamine, lacrimal gland membrane). Details: a membrane specimen from the lacrimal glands was used as the membrane specimen; from tissue; host or cells: rat lacrimal gland membranes (SD rat). Particulars: for M1/M3 / M2/M3: ratio of binding Ki; for M1/M3: M1 over M3; for M2/M3: M2 over M3. How it is done: as §1, §2
4) Tests for the inhibition of binding to the muscarinic M2 receptors
(§3) The nonspecific binding of [^3 H]-N-methylscopolamine to receptors was determined by the addition of 1 mM N-methylscopolamine.

For assay [3], the target named is T2, muscarinic M2 receptors (Rattus norvegicus, UniProt P10980).
T2 construct: a membrane specimen from the heart was used as the membrane specimen; from tissue; host or cells: rat heart membranes (SD rat)
T2 sequence (P10980 1-466): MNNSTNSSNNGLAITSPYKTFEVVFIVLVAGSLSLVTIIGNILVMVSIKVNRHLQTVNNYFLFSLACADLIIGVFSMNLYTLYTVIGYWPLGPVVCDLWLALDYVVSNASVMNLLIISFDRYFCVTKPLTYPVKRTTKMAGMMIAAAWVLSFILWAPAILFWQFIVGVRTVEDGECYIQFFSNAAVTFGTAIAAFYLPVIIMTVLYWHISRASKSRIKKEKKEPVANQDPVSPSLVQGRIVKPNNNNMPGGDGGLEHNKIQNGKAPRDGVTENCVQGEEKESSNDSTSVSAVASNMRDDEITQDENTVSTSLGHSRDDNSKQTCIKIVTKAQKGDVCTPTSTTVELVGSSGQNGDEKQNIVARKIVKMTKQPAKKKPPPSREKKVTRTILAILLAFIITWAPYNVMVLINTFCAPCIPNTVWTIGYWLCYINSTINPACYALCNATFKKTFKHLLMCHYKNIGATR
The assay is described as follows: Inhibition of binding to muscarinic M2 receptors ([3H]-N-methylscopolamine, heart membrane). Particulars: 0.2 nM [3H]-N-methylscopolamine. How it is done: as §1, with “The compounds of formula [I] in accordance with the present invention have a potent and selective inhibitory effect on binding to muscarinic receptors, as well as a potent and selective antagonistic effect on muscarinic receptors both in vitro and in vivo. […] In” for “In”
as §2
3) Tests for the inhibition of binding to the muscarinic M2 receptors
as §3

muscarinic M3 receptor, sequence (P08483 whole entry): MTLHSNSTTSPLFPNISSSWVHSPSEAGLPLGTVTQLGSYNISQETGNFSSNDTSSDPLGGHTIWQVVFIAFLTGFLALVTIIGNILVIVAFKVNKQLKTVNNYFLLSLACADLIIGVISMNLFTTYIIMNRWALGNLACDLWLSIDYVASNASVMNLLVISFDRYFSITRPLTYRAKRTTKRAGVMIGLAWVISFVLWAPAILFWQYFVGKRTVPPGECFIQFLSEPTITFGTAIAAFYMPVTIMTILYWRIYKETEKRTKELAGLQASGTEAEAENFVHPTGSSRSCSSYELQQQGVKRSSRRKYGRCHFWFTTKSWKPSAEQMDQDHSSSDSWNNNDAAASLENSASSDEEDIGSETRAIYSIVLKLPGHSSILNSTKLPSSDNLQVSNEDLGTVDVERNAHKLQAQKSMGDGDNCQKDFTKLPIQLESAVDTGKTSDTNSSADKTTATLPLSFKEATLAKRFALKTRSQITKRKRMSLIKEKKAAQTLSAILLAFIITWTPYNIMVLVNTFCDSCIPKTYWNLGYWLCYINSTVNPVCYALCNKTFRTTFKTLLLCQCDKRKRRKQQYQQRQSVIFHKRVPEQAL

The Ki is a dissociation constant, usually derived from enzyme kinetics or from competition with a known ligand. Higher therefore signals weaker binding. As to `CC(C)=CCCN1CCC(NC(=O)C(O)(c2ccccc2)C2CCCC2)CC1` (stereo not shown) [Example 16, N-[1-(4-Methyl-3-pentenyl)piperidin-4-yl]-2-cyclopentyl-2-hydroxy-2-phenylacetamide], the Ki in assay [1] was 0.013 µM. Moreover, in assay [2], the inhibitory constant (Ki) amounted to 0.0031 µM, the M1/M3 turned out to be 4.2 and the M2/M3 was determined as 97. The Ki in assay [3] was 0.302 µM.

As for `O=C(NC1CCN(CC2CCCCC2)CC1)C(O)(c1ccccc1)C1CCCC1` (stereo not shown) [Example 32, N-[1-(Cyclohexylmethyl)piperidin-4-yl]-2-cyclopentyl-2-hydroxy-2-phenylacetamide], the results for the Ki in assay [2] and in assay [3] were 0.011 µM and 2.3 µM, respectively.

In turn, `CC[C@H](C)CCCN1CCC(NC(=O)[C@](O)(c2ccccc2)C2CCC2)CC1.Cl` [Example 22, (2R)-N-{1-[(4S)-4-Methylhexyl]piperidin-4-yl}-2-cyclobutyl-2-hydroxy-2-phenylacetamide hydrochloride] registered a Ki in assay [1] of 0.12 µM. Also, in assay [2], the Ki came to 0.0092 µM, the M1/M3 came to 13.0 and the M2/M3 turned out to be 152. In assay [3], this compound displayed a Ki of 1.4 µM.

In assay [1], `CC(C)=CCCN1CCC(NC(=O)[C@](O)(c2ccccc2)C2CCCC2)CC1.O=C(O)/C=C/C(=O)O` [Example 28, (2R)-N-[1-(4-Methyl-3-pentenyl)piperidin-4-yl]-2-cyclopentyl-2-hydroxy-2-phenylacetamide fumarate] returned an inhibitory constant (Ki) of 0.006 µM. Besides, in assay [2], the affinity corresponds to a Ki of 0.002 µM, the M1/M3 was found to be 3.0 and the M2/M3 amounted to 96. The Ki in assay [3] is 0.19 µM.

For `CC[C@H](C)CCCN1CCC(NC(=O)[C@](O)(c2ccccc2)C2CCCC2)CC1.Cl` [Example 29, (2R)-N-{1-[(4S)-4-Methylhexyl]piperidin-4-yl}-2-cyclopentyl-2-hydroxy-2-phenylacetamide hydrochloride], the Ki in assay [1] came out at 0.04 µM; in assay [2] it was 0.0041 µM; in assay [3] it was 1.1 µM. In assay [2], the M1/M3 is recorded as 10. Also, the M2/M3 in assay [2] came to 270.
